Consider 9 compounds from patent US20260365682A1, “MODULATORS OF TNF-ALPHA ACTIVITY” (Forward Therapeutics, Inc., priority 2022, published 2026).

For orientation: IC50 means the concentration that gives 50% inhibition.

The target in the assay is T1, TNF-α (Homo sapiens, UniProt P01375).
T1 construct: purchased R&D 210-TA-020/CF
In words: TNF-α Induced HEK Blue Cellular Assay (secreted alkaline phosphatase expression, QUANTI-Blue). Conditions: HEK Blue TNFα reporter cells; TNF-α 100 μg/ml; 24 hrs at 37° C.; inhibition of secreted alkaline phosphatase; read-out: IC50 value. Format: cell-based. An outline of the steps: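 Compound was serially diluted from […] to 0.5 nM final, then incubated with 10,000 HEK Blue TNFα reporter cells per well and […] TNF-α for 24 h at 37° C. SEAP output was read by QUANTI-Blue absorbance at 620 nm. Inhibition was background-corrected against DMSO controls with and without stimulation, and IC50 was fitted with a 4-parameter logistic equation.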

T1 sequence (P01375 77-233 limits assumed): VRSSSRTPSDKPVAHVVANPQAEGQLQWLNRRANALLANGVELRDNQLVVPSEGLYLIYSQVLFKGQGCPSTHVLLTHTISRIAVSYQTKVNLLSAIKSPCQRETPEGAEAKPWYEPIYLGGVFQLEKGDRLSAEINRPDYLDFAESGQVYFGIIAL

As for `[2H]C([2H])([2H])N1C(=O)c2cccc(OC(F)F)c2[C@H]2C[C@@H]1c1nc3ccc(C#C[C@@H](C)CO)cc3n12` [Example 128, (7R,14R)-1-(difluoromethoxy)-11-((R)-4-hydroxy-3-methylbut-1-yn-1-yl)-6-(methyl-d3)-6,7-dihydro-7,14-methanobenzo[f]benzo[4,5]imidazo[1,2-a][1,4]diazocin-5(14H)-one], the IC50 is less than 0.1 µM.

With `[2H]C([2H])([2H])N1C(=O)c2cccc(OC(F)F)c2[C@H]2C[C@@H]1c1nc3ccc(C#Cc4cnc(NC(C)=O)nc4)cc3n12` [Example 259, N-(5-(((7R,14R)-1-(difluoromethoxy)-6-(methyl-d3)-5-oxo-5,6,7,14-tetrahydro-7,14-methanobenzo[f]benzo[4,5]imidazo[1,2-a][1,4]diazocin-11-yl)ethynyl)pyrimidin-2-yl)acetamide], the half-inhibitory concentration (IC50) is less than 0.1 µM.

Consider `[2H]C([2H])([2H])N1C(=O)c2cccc(OC(F)F)c2[C@H]2C[C@@H]1c1nc3ccc(C#CCCNC(=O)C(C)(C)O)cc3n12` [Example 213, N-(4-((7R,14R)-1-(difluoromethoxy)-6-(methyl-d3)-5-oxo-5,6,7,14-tetrahydro-7,14-methanobenzo[f]benzo[4,5]imidazo[1,2-a][1,4]diazocin-11-yl)but-3-yn-1-yl)-2-hydroxy-2-methylpropanamide], for which the IC50 was in the range of 10 to 30 µM. Next, `[2H]C([2H])([2H])N1C(=O)c2cccc(OC(F)F)c2[C@H]2C[C@@H]1c1nc3ccc(C#CCC4(O)COC4)cc3n12` [Example 81, (7R,14R)-1-(difluoromethoxy)-11-(3-(3-hydroxyoxetan-3-yl)prop-1-yn-1-yl)-6-(methyl-d3)-6,7-dihydro-7,14-methanobenzo[f]benzo[4,5]imidazo[1,2-a][1,4]diazocin-5(14H)-one]: 0.1 to 1 µM; `[2H]C([2H])([2H])N1C(=O)c2cccc(OC(F)F)c2[C@H]2C[C@@H]1c1nc3ccc(C#CCNC(C)(C)C)cc3n12` [Example 70, (7R,14R)-11-(3-(tert-butylamino)prop-1-yn-1-yl)-1-(difluoromethoxy)-6-(methyl-d3)-6,7-dihydro-7,14-methanobenzo[f]benzo[4,5]imidazo[1,2-a][1,4]diazocin-5(14H)-one]: 10 to 30 µM. Take `[2H]C([2H])([2H])N1C(=O)c2cccc(OC(F)F)c2[C@H]2C[C@@H]1c1nc3ccc(C#Cc4nncs4)cc3n12` [Example 30, (7R,14R)-11-((1,3,4-thiadiazol-2-yl)ethynyl)-1-(difluoromethoxy)-6-(methyl-d3)-6,7-dihydro-7,14-methanobenzo[f]benzo[4,5]imidazo[1,2-a][1,4]diazocin-5(14H)-one]: the half-inhibitory concentration (IC50) was less than 0.1 µM. The value for `[2H]C([2H])([2H])N1C(=O)c2cccc(OC(F)F)c2[C@H]2C[C@@H]1c1nc3ccc(C#CCOC(C)(C)C)cc3n12` [Example 56, (7R,14R)-11-(3-(tert-butoxy)prop-1-yn-1-yl)-1-(difluoromethoxy)-6-(methyl-d3)-6,7-dihydro-7,14-methanobenzo[f]benzo[4,5]imidazo[1,2-a][1,4]diazocin-5(14H)-one] was less than 0.1 µM. On to `[2H]C([2H])([2H])N1C(=O)c2cccc(OC(F)F)c2[C@H]2C[C@@H]1c1nc3ccc(C#CC4CC(N)C4)cc3n12` (stereo partly drawn) [Example 113, (7R,14R)-11-((3-aminocyclobutyl)ethynyl)-1-(difluoromethoxy)-6-(methyl-d3)-6,7-dihydro-7,14-methanobenzo[f]benzo[4,5]imidazo[1,2-a][1,4]diazocin-5(14H)-one], for which the IC50 was less than 0.1 µM. The value for `[2H]C([2H])([2H])N1C(=O)c2cccc(OC(F)F)c2[C@H]2C[C@@H]1c1nc3ccc(C#Cc4cn[nH]c4)cc3n12` [Example 14, (7R,14R)-11-((1H-pyrazol-4-yl)ethynyl)-1-(difluoromethoxy)-6-(methyl-d3)-6,7-dihydro-7,14-methanobenzo[f]benzo[4,5]imidazo[1,2-a][1,4]diazocin-5(14H)-one] was less than 0.1 µM.
